The record followed here is patent EP1322622B1, “NEW N, N'-DISUBSTITUTED BENZIMIDAZOLONE DERIVATIVES WITH AFFINITY AT THE SEROTONIN AND DOPAMINE RECEPTORS” (Sprout Pharmaceuticals, Inc., priority 2000, dated 2002).

The target in one assay is T1, D4 human receptors (Homo sapiens, UniProt P21917).
T1 construct: expressed in transfected cells; host or cells: CHO cells
T1 sequence (P21917 1-419): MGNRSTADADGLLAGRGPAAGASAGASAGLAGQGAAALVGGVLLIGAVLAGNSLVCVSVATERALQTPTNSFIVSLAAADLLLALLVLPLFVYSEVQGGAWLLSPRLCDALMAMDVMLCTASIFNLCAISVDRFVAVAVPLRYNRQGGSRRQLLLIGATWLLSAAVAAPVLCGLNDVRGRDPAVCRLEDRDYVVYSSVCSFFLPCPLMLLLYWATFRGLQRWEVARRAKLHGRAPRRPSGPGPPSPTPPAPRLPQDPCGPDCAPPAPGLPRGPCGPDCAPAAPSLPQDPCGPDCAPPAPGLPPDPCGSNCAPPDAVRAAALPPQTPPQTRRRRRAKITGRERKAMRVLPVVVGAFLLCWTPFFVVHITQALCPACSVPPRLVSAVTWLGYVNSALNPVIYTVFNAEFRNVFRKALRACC
Kind of assay: D4 Radioligand Receptor Binding Assay ([3H] YM-09151-2, CHO cell membranes). The settings on record: compound at 10^-7 M, singlicate; [3H] YM-09151-2 0.15-0.25 nM; read-out: D4 receptor binding assay % inhib. (10^-7 M).

Another assay deals with T2, 5-HT2A (Rattus norvegicus, UniProt P14842).
T2 construct: Cerebral frontal cortex was homogenized in 10 volumes of ice cold 0.32 M sucrose; from tissue; host or cells: rat cerebral frontal cortex membranes
T2 sequence (P14842 whole entry): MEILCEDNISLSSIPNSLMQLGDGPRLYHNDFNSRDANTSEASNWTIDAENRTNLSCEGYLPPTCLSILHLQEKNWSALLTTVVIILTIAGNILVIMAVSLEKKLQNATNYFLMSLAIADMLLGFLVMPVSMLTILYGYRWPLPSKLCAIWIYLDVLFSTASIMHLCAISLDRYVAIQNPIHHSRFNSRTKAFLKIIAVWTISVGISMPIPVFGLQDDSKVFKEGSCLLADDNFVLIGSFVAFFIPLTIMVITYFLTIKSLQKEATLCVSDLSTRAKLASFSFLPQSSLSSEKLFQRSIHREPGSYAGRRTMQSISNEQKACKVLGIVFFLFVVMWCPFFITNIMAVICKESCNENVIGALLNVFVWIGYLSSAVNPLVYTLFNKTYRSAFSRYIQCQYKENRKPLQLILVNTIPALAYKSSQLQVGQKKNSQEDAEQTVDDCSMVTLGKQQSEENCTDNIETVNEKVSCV
Kind of assay: 5HT2A Radioligand Receptor Binding Assay ([3H]-Ketanserin, cerebral frontal cortex membranes). To be noted: 0.5 nM [3H]-Ketanserin. Set-up: species or system Rats. The method, then:
Rats (male Sprague-Dawley, 200-250 g) were used. Cerebral frontal cortex was homogenized in 10 volumes of ice cold 0.32 M sucrose in 5 mM Tris-HCl ([…]) buffer. After centrifugation of the homogenate (1,000 x g for 10 min) the supernatant was then recentrifuged at 48,000x g for 15 min.The resulting pellet was gently homogenized in an equal volume of 50mM Tris-HCl buffer (pH 7.4) and incubated at 37° C for 10 minutes. Membranes were then collected by centrifugation as above described and finally resuspended in 10 volumes of 50mM Tris-HCl buffer (pH 7.4).
For displacement experiments membranes (980 µl) were diluted in 50 mM Tris-HCl buffer (pH 7.4) to a final concentration of 1:100 (w/v); the tissue suspension was then incubated at 37 °C for 10 min in a final volume of 1 ml in the presence of 0.5 nM [^3H]-Ketanserin. Non specific binding was determined by incubating similar samples with unlabelled methysergide (100 µM). […] The filters were washed three times with 2 ml ice-cold Tris-HCl buffer and placed in polyethylene vials, then 4 ml of Filter Count scintillation cocktail (Packard) were added. The radioactivity present was counted by liquid scintillation spectrometry.
The affinity values (IC50) for the compounds were obtained by a non linear least squares regression analysis on the basis of a one binding site model.

For another assay, the target named is T3, 5-HT1A human receptors (Homo sapiens, UniProt P08908).
T3 construct: expressed in transfected cells; host or cells: CHO cells
T3 sequence (P08908 1-422): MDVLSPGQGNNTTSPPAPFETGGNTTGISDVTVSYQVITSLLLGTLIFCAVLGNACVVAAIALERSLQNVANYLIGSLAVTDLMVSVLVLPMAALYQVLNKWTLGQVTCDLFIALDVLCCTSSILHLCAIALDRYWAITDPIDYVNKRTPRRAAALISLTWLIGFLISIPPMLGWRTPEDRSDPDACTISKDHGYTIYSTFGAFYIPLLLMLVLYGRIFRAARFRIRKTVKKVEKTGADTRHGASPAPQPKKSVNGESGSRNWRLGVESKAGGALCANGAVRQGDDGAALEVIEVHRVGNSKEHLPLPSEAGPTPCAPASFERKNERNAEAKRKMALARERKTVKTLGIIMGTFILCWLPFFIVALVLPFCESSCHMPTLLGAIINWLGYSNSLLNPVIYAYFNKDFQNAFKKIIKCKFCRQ
Kind of assay: 5-HT1A Radioligand Receptor Binding Assay ([3H]-8-OH-DPAT, CHO cell membranes). To be noted: for IC50: [3H]-8-OH-DPAT displacement, CHO membranes, read-out: 5-HT1A receptor binding IC50; for inhibition at 0.1 µM: compound at 10^-7 M, singlicate, [3H]-8-OH-DPAT 0.6-0.7 nM, read-out: 5-HT1A receptor binding assay % inhib. (10^-7 M).

The next assay has as its target T4, CHO/5-HT1A cells (Homo sapiens, UniProt P08908).
T4 construct: expressed in transfected cells; host or cells: CHO/5-HT1A cells
T4 sequence (P08908 1-422): T3 sequence (P08908 1-422)
Kind of assay: 5-HT1A Functional assay (cAMP). The format is cell-based. The settings on record: 10 µM compound; % inhibition of the cAMP accumulation induced by 10 µM FSK; read-out: 5-HT1A cAMP % inhib. The method, then:
CHO/5-HT1A cells were random seeded at a density of about 200,000/well in 24 well plates the day prior to the experiment. On the day of the experiment, cells were pretreated for 15 min at 37 °C with 500 µM isobuthylmethylxantine (IBMX) dissolved in culture medium without serum. Wells were then divided in different groups in duplicate as follows: control, 10 µM FSK, 10 µM FSK + 1 µM 5-HT as positive standard and 10 µM FSK + 10 µM of the different compound under evaluation. Sample solutions were added and incubated for additional 15 min at 37 °C. After incubation, medium was aspirated and the reaction stopped by adding 200 µl of lysis buffer. Plates were shaken for 5 min, then the lysate was removed and samples were stored at 4 °C until the day of the assay. For the cAMP evaluation, samples were properly diluted and the cAMP content was measured by an enzymeimmunoassay system.
(In general: cAMP levels reflect the balance of adenylyl cyclase and phosphodiesterase activity.)

`COCCn1c(=O)n(CCCCN2CCN(c3cccc(C(F)(F)F)c3)CC2)c2ccccc21` [compound 9]: the values for the inhibition at 0.1 µM at D4 human receptors and on 5-HT1A human receptors were 32% and 93%, respectively. In addition, the IC50 on 5-HT2A turned out to be 16 nM; on 5-HT1A human receptors it was 9.9 nM. Moreover, the inhibition at 10 µM at CHO/5-HT1A cells is 48%.
In the case of `Cc1cccc(N2CCN(CCCCn3c(=O)n(CCO)c4ccccc43)CC2)c1C` [compound 73], the inhibition at 0.1 µM at D4 human receptors is 58%; at 5-HT1A human receptors, 91%. Further, the IC50 on 5-HT2A was 0.9 nM; at 5-HT1A human receptors it was 13 nM. The inhibition at 10 µM at CHO/5-HT1A cells stood at 45%.
Take `CCNC(=O)OCCn1c(=O)n(CCCCN2CCN(c3cccc(C(F)(F)F)c3)CC2)c2ccccc21` [compound 83]: the inhibition at 0.1 µM at D4 human receptors worked out at 39%; at 5-HT1A human receptors, 89%. Further, the IC50 came out at 43 nM at 5-HT2A and 15 nM on 5-HT1A human receptors. Besides, the inhibition at 10 µM on CHO/5-HT1A cells worked out at 64%.
In the case of `COCCn1c(=O)n(CCN2CCN(c3cccc(C(F)(F)F)c3)CC2)c2ccccc21` [compound 168], the IC50 at 5-HT2A turned out to be 46 nM; at 5-HT1A human receptors, 5 nM. Also, the inhibition at 10 µM at CHO/5-HT1A cells came out at 71%.
Consider `COCCn1c(=O)n(CCN2CCN(c3cccc(C)c3C)CC2)c2ccccc21` [compound 177], for which the IC50 at 5-HT2A is 7.7 nM. Besides, at 5-HT1A human receptors, the IC50 turned out to be 3.3 nM and the inhibition at 0.1 µM was 98%. On CHO/5-HT1A cells, the inhibition at 10 µM was 76%.
With `O=c1n(CCO)c2ccccc2n1CCN1CCN(c2cccc(Cl)c2)CC1` [compound 183], the inhibition at 0.1 µM came out at 62% at D4 human receptors and 96% at 5-HT1A human receptors. The half-maximal inhibitory concentration (IC50) at 5-HT2A amounted to 27 nM; at 5-HT1A human receptors, 7.2 nM. The inhibition at 10 µM on CHO/5-HT1A cells was found to be 66%.
For `CCNC(=O)OCCn1c(=O)n(CCN2CCN(c3cccc(C(F)(F)F)c3)CC2)c2ccccc21` [compound 206], the IC50 at 5-HT2A is 17 nM; on 5-HT1A human receptors it was 2.1 nM. Also, the inhibition at 10 µM at CHO/5-HT1A cells came out at 80%.
In the case of `Cc1cccc(N2CCN(CCn3c(=O)n(CCNS(C)(=O)=O)c4ccccc43)CC2)c1C` [compound 254], the results for the inhibition at 0.1 µM at D4 human receptors and at 5-HT1A human receptors were 34% and 85%, respectively. Further, the IC50 was found to be 65 nM at 5-HT2A and 7.4 nM on 5-HT1A human receptors. In addition, the inhibition at 10 µM at CHO/5-HT1A cells is 66%.
On to `O=c1n(C/C=C\CN2CC=C(c3ccccc3)CC2)c2ccccc2n1CCO` [compound 370], for which the inhibition at 0.1 µM at D4 human receptors came out at 60%; at 5-HT1A human receptors it was 93%. Also, on CHO/5-HT1A cells, the inhibition at 10 µM stood at 52%.
In the case of `CCNC(=O)OCCn1c(=O)n(CC=CCN2CC=C(c3ccccc3)CC2)c2ccccc21` [compound 404], the inhibition at 0.1 µM on D4 human receptors stood at 34%; at 5-HT1A human receptors, 95%. Further, the inhibition at 10 µM on CHO/5-HT1A cells is 60%.
For `CCNC(=O)OCCn1c(=O)n(C/C=C/CN2CCN(c3cccc(Cl)c3)CC2)c2ccccc21` [compound 416], the inhibition at 0.1 µM on D4 human receptors was 39%; on 5-HT1A human receptors, 96%. For the same compound, on CHO/5-HT1A cells, the inhibition at 10 µM came out at 77%.
For `CC(=O)NCCn1c(=O)n(CCN2CCN(c3cccc(C)c3C)CC2)c2ccccc21` [compound 446], the inhibition at 0.1 µM on D4 human receptors was found to be 31%. Also, at 5-HT1A human receptors, the IC50 turned out to be 7.3 nM and the inhibition at 0.1 µM turned out to be 92%. For the same compound, on CHO/5-HT1A cells, the inhibition at 10 µM was determined as 81%.
Take `CS(=O)(=O)NCCn1c(=O)n(C/C=C\CN2CC=C(c3ccccc3)CC2)c2ccccc21` [compound 504]: the inhibition at 0.1 µM worked out at 34% on D4 human receptors and 93% at 5-HT1A human receptors. Besides, the inhibition at 10 µM at CHO/5-HT1A cells was 50%.

What is called IC50 is the concentration at which inhibition is half-maximal.
